# Test results taken from patent US11000033B2, “Ketone or oxime compound, and herbicide” (NISSAN CHEMICAL CORPORATION, priority 2014, dated 2021).
# Assays:
# Format in all cases: in vivo
# transplanted rice plant = test: Test Example 1: effect on crop, application before weed generation in submerged conditions (symbol a); details: application herbicide amount 320 g/ha
# Procedure, shortened: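 Rice at 2.5 leaf stage transplanted into submerged soil (4 cm depth) sown with three weed species; herbicide applied before weed emergence.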
# [1] = tested on: Echinochloa oryzacola Vasing.; test: Test Example 2: herbicidal activity, application during weed generation in submerged conditions (symbol A); details: Table 23; application herbicide amount 320 g/ha; grade 0-5 by criteria of Test Example 1
# Procedure, shortened: (§1)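 Visual herbicidal ratings, taken three weeks after dosing, reflect post-emergence water-surface application to seedlings at one to two leaves. Conditions: co-sown weeds in alluvial soil flooded to 4 cm, greenhouse held at 25° C. to 30° C.; compound given as water-diluted emulsion at a fixed herbicide amount.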
# Scirpus juncoides = test: Test Example 2: herbicidal activity, application during weed generation in submerged conditions (symbol B); details: Table 23; application herbicide amount 320 g/ha; grade 0-5 by criteria of Test Example 1
# Procedure, shortened: as §1
# [2] = tested on: Echinochloa crus-galli var. crus-galli; test: Test Example 3: herbicidal effect by foliage application, Wagner pot (symbol H); details: application herbicide amount 320 g/ha; for H (Echinochloa crus-galli var. crus-galli) herbicidal effect grade: Table 24
# Procedure, shortened: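 Herbicidal activity was rated three weeks after a foliar spray of diluted emulsion concentrate, applied at a predetermined dose to plants grown for 14 days from seed in waterlogged alluvial soil within a 25–30 °C greenhouse.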
# Avena fatua = test: Test Example 4: herbicidal effect by soil treatment (symbol I)
# Procedure, shortened: (§2)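 Seeds were sown in sterilized diluvial soil, covered with about 1.5 cm of soil, and the soil surface was sprayed with a water-diluted emulsion of the compound at a predetermined rate. Plants grew in a greenhouse at 25° C. to 30° C.; effects were scored visually 3 weeks after application.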
# Alopecurus myosuroides [3] = test: Test Example 4: herbicidal effect by soil treatment (symbol J)
# Procedure, shortened: as §2
# Apera spica-venti = test: Test Example 4: herbicidal effect by soil treatment (symbol L)
# Procedure, shortened: as §2
# Abutilon theophrasti = test: Test Example 4: herbicidal effect by soil treatment (symbol M)
# Procedure, shortened: as §2
# corn [4] = test: Test Example 4: effect on crop by soil treatment (symbol c); details: for Effect on crop grade, c: corn / c: corn, effect on crop grade: application herbicide amount 320 g/ha
# Procedure, shortened: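 Plants are raised in a greenhouse (25° C. to 30° C.) from spot-sown seed, which sits under about 1.5 cm of sterilized diluvial soil in a box shared with weed species.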
# Digitaria ciliaris = test: Test Example 5: herbicidal effect by foliage application, plastic box (symbol F); details: 320 g/ha, 3 weeks after application
# Procedure, shortened: (§3)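 Herbicide, formulated as an emulsion and diluted in water, is sprayed onto the aerial parts of 14-day seedlings. These were grown at 25° C. to 30° C. in sterilized diluvial soil; effects are graded after 3 weeks.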
# Alopecurus myosuroides [5] = test: Test Example 5: herbicidal effect by foliage application, plastic box (symbol J); details: 320 g/ha, 3 weeks after application
# Procedure, shortened: as §3
# Amaranthus retroflexus = test: Test Example 5: herbicidal effect by foliage application, plastic box (symbol N); details: 320 g/ha, 3 weeks after application
# Procedure, shortened: as §3
# Veronica persica = test: Test Example 5: herbicidal effect by foliage application, plastic box (symbol R); details: 320 g/ha, 3 weeks after application
# Procedure, shortened: as §3
# corn [6] = test: Test Example 5: effect on crop by foliage application, plastic box (symbol c); details: 320 g/ha, 3 weeks after application
# Procedure, shortened: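 Soil: sterilized diluvial. Container: plastic box, 21 × 13 cm, 7 cm deep. Sowing: spot-like, ~1.5 cm cover. Growth: greenhouse, 25° C. to 30° C.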
# [7] = application herbicide amount 320 g/ha
Structure (SMILES),a (transplanted rice plant) effect on crop grade (transplanted rice plant),"Herbicidal effect grade, A: Echinochloa oryzacola Vasing. [1]","Herbicidal effect grade, B: Scirpus juncoides (Scirpus juncoides)",H (Echinochloa crus-galli var. crus-galli) herbicidal effect grade [2],"Herbicidal effect grade, I: Avena fatua (Avena fatua; [7])","Herbicidal effect grade, J: Alopecurus myosuroides (Alopecurus myosuroides [3]; [7])","Herbicidal effect grade, L: Apera spica-venti (Apera spica-venti; [7])","Herbicidal effect grade, M: Abutilon theophrasti (Abutilon theophrasti; [7])","Effect on crop grade, c: corn (corn [4])","F: Digitaria ciliaris, herbicidal effect grade (Digitaria ciliaris)","J: Alopecurus myosuroides, herbicidal effect grade (Alopecurus myosuroides [5])","N: Amaranthus retroflexus, herbicidal effect grade (Amaranthus retroflexus)","R: Veronica persica, herbicidal effect grade (Veronica persica)","c: corn, effect on crop grade (corn [6])","I: Avena fatua, herbicidal effect grade (Avena fatua; [7])","J: Alopecurus myosuroides, herbicidal effect grade (Alopecurus myosuroides [3]; [7])","L: Apera spica-venti, herbicidal effect grade (Apera spica-venti; [7])","M: Abutilon theophrasti, herbicidal effect grade (Abutilon theophrasti; [7])","c: corn, effect on crop grade (corn [4])",also measured
CC#Cc1cc(C)c(C2=C(O)CC(CC(=NOCCOC)C(C)C)C2=O)c(C)c1 (stereo not shown) [9-023],5 (Herbicidal ratio of 90% or more (almost completely withered)),5 (Herbicidal ratio of 90% or more (almost completely withered)),4 (Herbicidal ratio of 70% or higher and lower than 90%),5 (Herbicidal ratio of 90% or more (almost completely withered)),2 (Herbicidal ratio of 20% or higher and lower than 40%),3 (Herbicidal ratio of 40% or higher and lower than 70%),5 (Herbicidal ratio of 90% or more (almost completely withered)),0 (Herbicidal ratio of 5% or lower (almost no effect)),3 (Herbicidal ratio of 40% or higher and lower than 70%),5 (Herbicidal ratio of 90% or more (almost completely withered)),5 (Herbicidal ratio of 90% or more (almost completely withered)),0 (Herbicidal ratio of 5% or lower (almost no effect)),3 (Herbicidal ratio of 40% or higher and lower than 70%),5 (Herbicidal ratio of 90% or more (almost completely withered)),–,–,–,–,–,–
COCCON=C(CC1CC(O)=C(c2c(C)cc(-n3cc(Cl)cn3)cc2C)C1=O)C(C)C (stereo not shown) [9-022],5 (Herbicidal ratio of 90% or more (almost completely withered)),4 (Herbicidal ratio of 70% or higher and lower than 90%),0 (Herbicidal ratio of 5% or lower (almost no effect)),5 (Herbicidal ratio of 90% or more (almost completely withered)),0 (Herbicidal ratio of 5% or lower (almost no effect)),0 (Herbicidal ratio of 5% or lower (almost no effect)),0 (Herbicidal ratio of 5% or lower (almost no effect)),0 (Herbicidal ratio of 5% or lower (almost no effect)),1 (Herbicidal ratio of 5% or higher and lower than 20%),5 (Herbicidal ratio of 90% or more (almost completely withered)),2 (Herbicidal ratio of 20% or higher and lower than 40%),0 (Herbicidal ratio of 5% or lower (almost no effect)),0 (Herbicidal ratio of 5% or lower (almost no effect)),2 (Herbicidal ratio of 20% or higher and lower than 40%),–,–,–,–,–,–
CCC(CC1CC(O)=C(c2c(C)cc(-c3ccccc3)cc2OC)C1=O)=NOC (mixture of isomers) [13-004],5 (Herbicidal ratio of 90% or more (almost completely withered)),5 (Herbicidal ratio of 90% or more (almost completely withered)),5 (Herbicidal ratio of 90% or more (almost completely withered)),5 (Herbicidal ratio of 90% or more (almost completely withered)),–,–,–,–,–,5 (Herbicidal ratio of 90% or more (almost completely withered)),5 (Herbicidal ratio of 90% or more (almost completely withered)),0 (Herbicidal ratio of 5% or lower (almost no effect)),3 (Herbicidal ratio of 40% or higher and lower than 70%),5 (Herbicidal ratio of 90% or more (almost completely withered)),3 (Herbicidal ratio of 40% or higher and lower than 70%),5 (Herbicidal ratio of 90% or more (almost completely withered)),5 (Herbicidal ratio of 90% or more (almost completely withered)),0 (Herbicidal ratio of 5% or lower (almost no effect)),5 (Herbicidal ratio of 90% or more (almost completely withered)),–
CON=C(C)CC1CC(OC(=O)c2nsc(Cl)c2Cl)=C(c2c(C)cc(C)cc2C)C1=O (stereo not shown) [1-099],–,4 (Herbicidal ratio of 70% or higher and lower than 90%),4 (Herbicidal ratio of 70% or higher and lower than 90%),–,–,–,–,–,–,–,–,–,–,–,–,–,–,–,–,"Effect grade on crop, a: transplanted rice plant (transplanted rice plant): 5 (Herbicidal ratio of 90% or more (almost completely withered)); herbicidal effect on H (Echinochloa crus-galli var. crus-galli), grade 0-5 [2]: 5 (Herbicidal ratio of 90% or more (almost completely withered)); I: Avena fatua, herbicidal effect grade (Avena fatua; 320 g/ha): 2 (Herbicidal ratio of 20% or higher and lower than 40%); J: Alopecurus myosuroides, herbicidal effect grade (Alopecurus myosuroides [3]; 320 g/ha): 5 (Herbicidal ratio of 90% or more (almost completely withered)); L: Apera spica-venti, herbicidal effect grade (Apera spica-venti; 320 g/ha): 5 (Herbicidal ratio of 90% or more (almost completely withered)); M: Abutilon theophrasti, herbicidal effect grade (Abutilon theophrasti; 320 g/ha): 5 (Herbicidal ratio of 90% or more (almost completely withered)); c: corn, effect grade on crop (corn [4]; 320 g/ha): 5 (Herbicidal ratio of 90% or more (almost completely withered)); F: Digitaria ciliaris, herbicidal effect (criteria 0-5) (Digitaria ciliaris): 5 (Herbicidal ratio of 90% or more (almost completely withered)); J: Alopecurus myosuroides, herbicidal effect (criteria 0-5) (Alopecurus myosuroides [5]): 5 (Herbicidal ratio of 90% or more (almost completely withered)); N: Amaranthus retroflexus, herbicidal effect (criteria 0-5) (Amaranthus retroflexus): 0 (Herbicidal ratio of 5% or lower (almost no effect)); R: Veronica persica, herbicidal effect (criteria 0-5) (Veronica persica): 3 (Herbicidal ratio of 40% or higher and lower than 70%); c: corn, effect on crop (criteria 0-5) (corn [6]): 5 (Herbicidal ratio of 90% or more (almost completely withered))"
COc1cc(Br)cc(C)c1C1=C(O)CC(CC(=O)C2CC2)C1=O (racemic) [14-001],5 (Herbicidal ratio of 90% or more (almost completely withered)),5 (Herbicidal ratio of 90% or more (almost completely withered)),0 (Herbicidal ratio of 5% or lower (almost no effect)),5 (Herbicidal ratio of 90% or more (almost completely withered)),–,–,–,–,–,5 (Herbicidal ratio of 90% or more (almost completely withered)),5 (Herbicidal ratio of 90% or more (almost completely withered)),0 (Herbicidal ratio of 5% or lower (almost no effect)),2 (Herbicidal ratio of 20% or higher and lower than 40%),5 (Herbicidal ratio of 90% or more (almost completely withered)),5 (Herbicidal ratio of 90% or more (almost completely withered)),5 (Herbicidal ratio of 90% or more (almost completely withered)),5 (Herbicidal ratio of 90% or more (almost completely withered)),0 (Herbicidal ratio of 5% or lower (almost no effect)),5 (Herbicidal ratio of 90% or more (almost completely withered)),–
